Experimental data as given in ChEMBL document CHEMBL3244025, “Carbocyclic arabinosyladenine, an adenosine deaminase resistant antiviral agent” (J Med Chem, 1977).

Experiments:
[1] = Stability of the compound assessed as calf intestinal adenosine deaminase type 3-mediated deamination in presence of C-ara-A; assay type: ADME, Bos taurus; conditions: cattle
P388 = test: Cytotoxicity against mouse P388 cells after 72 hrs by hemocytometric analysis; assay type: functional
[2] = Stability of the compound assessed as calf intestinal adenosine deaminase type 3-mediated deamination; assay type: ADME, Bos taurus; conditions: cattle
Human alphaherpesvirus 1 = test: Antiviral activity against Herpes simplex virus type 1 HF infected in human Hep2 cells assessed as inhibition of virus-induced cytopathogenic effect; assay type: functional, HEp-2
[3] = Cytotoxicity against human Hep2 cells; assay type: cell-based; conditions: hep-2

With Nc1ncnc2c1ncn2[C@@H]1O[C@H](CO)[C@@H](O)[C@H]1O [ADENOSINE] the Stability [1] was “Unstable”.

With Nc1ncnc2c1ncn2[C@@H]1C[C@H](CO)[C@@H](O)[C@@H]1O (racemic) the LD50 (P388) was 1 ×10⁻⁵ M, the Stability [2] was “Stable” and the MED50 (Human alphaherpesvirus 1) was 2.8 µg/mL. It also gave an Activity [3] of 9 µg/mL.

For Nc1ncnc2c1ncn2[C@@H]1O[C@H](CO)[C@@H](O)[C@@H]1O [VIDARABINE], the LD50 (P388) was 1 ×10⁻⁵ M, the Stability [2] was “Unstable” and the Stability [1] was “Unstable”.
